MIC99 and Activity data for 28 molecules are collected here from ChEMBL document CHEMBL3297720, “Synthesis and evaluation of N-alkyl-9-aminoacridines with antibacterial activity” (2014).

≈ marks a conversion by molar mass, not a printed value. Calls of active or inactive are those of the source. The calls are words filed in the database; no cut-off is given here.

The test system of assay [1] is Staphylococcus aureus. As to the kind of experiment: Antibacterial activity against methicillin-resistant Staphylococcus aureus IDRL 6169 after 16 to 20 hrs by broth microdilution assay. The format is functional. (In general: Dilution methods test growth across graded concentrations, often in twofold steps.)
For assay [2], the system named is Staphylococcus aureus. In words: Antibacterial activity against methicillin-resistant Staphylococcus aureus ATCC 43300 after 16 to 20 hrs by broth microdilution assay. The class given is functional.
For assay [3], the system named is Staphylococcus aureus. As to the kind of experiment: Antibacterial activity against methicillin-sensitive Staphylococcus aureus […] 8545 after 16 to 20 hrs by broth microdilution assay. The format is functional.
The subject of another assay is Nucleic Acid. In words: Binding affinity to relaxed plasmid DNA (unknown origin) assessed as DNA intercalation at 4 to 100 uM after 10 mins by gel electrophoresis in presence of human topoisomerase 1. The class given is nucleic-acid assay.

On to `CCCCCCCCNc1c2ccccc2nc2cc(C(=O)N3CCN(C)CC3)ccc12`, for which the MIC99 against Staphylococcus aureus [1], in the assay with Staphylococcus aureus [2] and with Staphylococcus aureus [3] was over 100 µM each time.

As for `CCCCCCCCCCCCCCNc1c2ccccc2nc2ccccc12`, the MIC99 (usually the lowest concentration that inhibits either 99% of growth or 99% of the strains tested, depending on the study) against Staphylococcus aureus [1] amounted to 2.15 µM (≈ 0.84 µg/mL); in the assay on Staphylococcus aureus [2], 3.07 µM (≈ 1.2 µg/mL); in the assay with Staphylococcus aureus [3] it was 2.98 µM (≈ 1.16 µg/mL).

Consider `CCCCCCCCCCCCCCCCNc1c2ccccc2nc2ccccc12`, for which the MIC99 in the assay with Staphylococcus aureus [1] was 10.1 µM (≈ 4.25 µg/mL); with Staphylococcus aureus [2] it was 24.7 µM (≈ 10.3 µg/mL); in the assay with Staphylococcus aureus [3], 26.2 µM (≈ 11 µg/mL).

For `CCCNc1c2ccccc2nc2ccccc12`, the MIC99 against Staphylococcus aureus [1], in the assay on Staphylococcus aureus [2] and in the assay with Staphylococcus aureus [3] was over 100 µM throughout. For the same molecule, the outcome in the assay with Nucleic Acid was Active.

Turning to `CCCCCCCNc1c2ccccc2nc2cc(C(=O)N3CCN(C)CC3)ccc12`, the MIC99 with Staphylococcus aureus [1], against Staphylococcus aureus [2] and against Staphylococcus aureus [3] was over 100 µM throughout.

As to `CCCCCCCCCCCCCCCNc1c2ccccc2nc2cc(C(=O)N3CCN(C)CC3)ccc12`, the MIC99 with Staphylococcus aureus [1] turned out to be 8.59 µM (≈ 4.56 µg/mL); with Staphylococcus aureus [2], 4.59 µM (≈ 2.44 µg/mL); against Staphylococcus aureus [3], 5.91 µM (≈ 3.14 µg/mL).

Turning to `CCCCNc1c2ccccc2nc2cc(C(=O)N3CCN(C)CC3)ccc12`, the MIC99 with Staphylococcus aureus [1], in the assay on Staphylococcus aureus [2] and with Staphylococcus aureus [3] was over 100 µM throughout.

With `CCCCCCCCCNc1c2ccccc2nc2cc(C(=O)N3CCN(C)CC3)ccc12`, the MIC99 came out at 23.7 µM (≈ 10.6 µg/mL) in the assay on Staphylococcus aureus [1], 22.7 µM (≈ 10.1 µg/mL) with Staphylococcus aureus [2] and 35.5 µM (≈ 15.8 µg/mL) against Staphylococcus aureus [3].

For `CCCCCCNc1c2ccccc2nc2ccccc12`, the results for the MIC99 with Staphylococcus aureus [1], against Staphylococcus aureus [2] and against Staphylococcus aureus [3] were 46.9 µM (≈ 13.1 µg/mL), 50.6 µM (≈ 14.1 µg/mL) and over 100 µM, respectively.

Turning to `CCCCCCCCCNc1c2ccccc2nc2ccccc12`, the MIC99 against Staphylococcus aureus [1] turned out to be 3.59 µM (≈ 1.15 µg/mL); in the assay on Staphylococcus aureus [2] it was 3.19 µM (≈ 1.02 µg/mL); against Staphylococcus aureus [3] it was 5.95 µM (≈ 1.91 µg/mL).

`CCCCNc1c2ccccc2nc2ccccc12`: the MIC99 in the assay with Staphylococcus aureus [1], in the assay on Staphylococcus aureus [2] and against Staphylococcus aureus [3] was over 100 µM each time.

Regarding `CCCCCCCCCCCNc1c2ccccc2nc2ccccc12`, the MIC99 stood at 2.73 µM (≈ 0.951 µg/mL) against Staphylococcus aureus [1], 2.01 µM (≈ 0.701 µg/mL) against Staphylococcus aureus [2] and 3.81 µM (≈ 1.33 µg/mL) with Staphylococcus aureus [3].

`CCCCCCCNc1c2ccccc2nc2ccccc12`: the MIC99 against Staphylococcus aureus [1] is 22.9 µM (≈ 6.68 µg/mL); in the assay on Staphylococcus aureus [2] it was 24.5 µM (≈ 7.16 µg/mL); in the assay on Staphylococcus aureus [3], 27.5 µM (≈ 8.05 µg/mL).

With `CCCCCCCCCCCNc1c2ccccc2nc2cc(C(=O)N3CCN(C)CC3)ccc12`, the results for the MIC99 against Staphylococcus aureus [1], with Staphylococcus aureus [2] and against Staphylococcus aureus [3] were 6.14 µM (≈ 2.91 µg/mL), 3.61 µM (≈ 1.71 µg/mL) and 6.23 µM (≈ 2.96 µg/mL), respectively.

Regarding `CCCCCCCCNc1c2ccccc2nc2ccccc12`, the MIC99 was 10.8 µM (≈ 3.31 µg/mL) against Staphylococcus aureus [1], 8.54 µM (≈ 2.62 µg/mL) with Staphylococcus aureus [2] and 10.3 µM (≈ 3.14 µg/mL) in the assay on Staphylococcus aureus [3].

For the molecule `CCCCCCCCCCCCCNc1c2ccccc2nc2ccccc12`, the values for the MIC99 in the assay with Staphylococcus aureus [1], in the assay on Staphylococcus aureus [2] and with Staphylococcus aureus [3] were 2.8 µM (≈ 1.05 µg/mL), 3.04 µM (≈ 1.14 µg/mL) and 2.61 µM (≈ 0.983 µg/mL), respectively.

With `CCCCCCCCCCCCCNc1c2ccccc2nc2cc(C(=O)N3CCN(C)CC3)ccc12`, the MIC99 in the assay on Staphylococcus aureus [1] turned out to be 3.07 µM (≈ 1.54 µg/mL); in the assay with Staphylococcus aureus [2], 2.91 µM (≈ 1.46 µg/mL); against Staphylococcus aureus [3], 3.57 µM (≈ 1.79 µg/mL).

Regarding `CCCCCCNc1c2ccccc2nc2cc(C(=O)N3CCN(C)CC3)ccc12`, the MIC99 with Staphylococcus aureus [1], against Staphylococcus aureus [2] and with Staphylococcus aureus [3] was over 100 µM each time.

In the case of `CCCCCCCCCCNc1c2ccccc2nc2cc(C(=O)N3CCN(C)CC3)ccc12`, the MIC99 with Staphylococcus aureus [1] turned out to be 10.7 µM (≈ 4.95 µg/mL); with Staphylococcus aureus [2] it was 12.2 µM (≈ 5.6 µg/mL); with Staphylococcus aureus [3], 12 µM (≈ 5.51 µg/mL). For the same molecule, in the assay on Nucleic Acid, the outcome was inactive.

Take `CCCNc1c2ccccc2nc2cc(C(=O)N3CCN(C)CC3)ccc12`: the MIC99 against Staphylococcus aureus [1], in the assay with Staphylococcus aureus [2] and against Staphylococcus aureus [3] was over 100 µM throughout. In the assay with Nucleic Acid, the result was Active.

As for `CCCCCCCCCCNc1c2ccccc2nc2ccccc12`, the MIC99 in the assay on Staphylococcus aureus [1] came out at 3.29 µM (≈ 1.1 µg/mL); in the assay with Staphylococcus aureus [2], 2.19 µM (≈ 0.733 µg/mL); with Staphylococcus aureus [3] it was 2.61 µM (≈ 0.873 µg/mL). Besides, the outcome in the assay with Nucleic Acid was inactive.

`CCCCCCCCCCCCCCCCNc1c2ccccc2nc2cc(C(=O)N3CCN(C)CC3)ccc12`: the MIC99 with Staphylococcus aureus [1] was 9.06 µM (≈ 4.94 µg/mL); in the assay on Staphylococcus aureus [2], 6.23 µM (≈ 3.39 µg/mL); in the assay on Staphylococcus aureus [3], 11.6 µM (≈ 6.31 µg/mL).

Consider `CCCCCCCCCCCCNc1c2ccccc2nc2ccccc12`, for which the MIC99 in the assay with Staphylococcus aureus [1] was 2.73 µM (≈ 0.99 µg/mL); against Staphylococcus aureus [2], 2.88 µM (≈ 1.04 µg/mL); in the assay on Staphylococcus aureus [3], 2.88 µM (≈ 1.04 µg/mL).

With `CCCCCNc1c2ccccc2nc2cc(C(=O)N3CCN(C)CC3)ccc12`, the MIC99 with Staphylococcus aureus [1], with Staphylococcus aureus [2] and against Staphylococcus aureus [3] was over 100 µM each time.

`CCCCCCCCCCCCCCNc1c2ccccc2nc2cc(C(=O)N3CCN(C)CC3)ccc12`: the MIC99 in the assay with Staphylococcus aureus [1] is 6.13 µM (≈ 3.17 µg/mL); in the assay with Staphylococcus aureus [2], 5.82 µM (≈ 3.01 µg/mL); against Staphylococcus aureus [3], 6.25 µM (≈ 3.23 µg/mL).

Turning to `CCCCCNc1c2ccccc2nc2ccccc12`, the MIC99 against Staphylococcus aureus [1], in the assay on Staphylococcus aureus [2] and in the assay with Staphylococcus aureus [3] was over 100 µM throughout.

As for `CCCCCCCCCCCCNc1c2ccccc2nc2cc(C(=O)N3CCN(C)CC3)ccc12`, the MIC99 stood at 5.87 µM (≈ 2.87 µg/mL) in the assay on Staphylococcus aureus [1], 6.28 µM (≈ 3.07 µg/mL) against Staphylococcus aureus [2] and 4.8 µM (≈ 2.35 µg/mL) with Staphylococcus aureus [3].

Take `CCCCCCCCCCCCCCCNc1c2ccccc2nc2ccccc12`: the MIC99 came to 3.21 µM (≈ 1.3 µg/mL) with Staphylococcus aureus [1], 6.1 µM (≈ 2.47 µg/mL) in the assay on Staphylococcus aureus [2] and 5.69 µM (≈ 2.3 µg/mL) with Staphylococcus aureus [3].
